This is an account of results in patent EP0860438B1, “Fluorine-containing diphenyl acrylamide antimicrobial agents” (Shenyang Research Institute of Chemical Industry, priority 1997, dated 1998).

Where two headings read alike, the source gives them in different places.

Assay [1] relates to cucumber downy mildew. The experiment in a line: Indoor comparison with currently available antimicrobial agents, protective effect (Example 12). The class given is in vivo, Pseudoperonospora cubensis. The settings on record: seedling of yellow melon.
Assay [2] deals with cucumber downy mildew. Kind of assay: Indoor comparison with currently available antimicrobial agents, therapeutic effect (Example 12). The class given is in vivo, Pseudoperonospora cubensis. The settings on record: seedling of yellow melon.
Assay [3] deals with cucumber downy mildew (Pseudoperonospora cubensis). The experiment in a line: Test for inhibition of spore germination in cucumber downy mildew. Format: cell-based.
Assay [4] deals with cucumber downy mildew. The experiment in a line: Field protection test against cucumber downy mildew (Example 13). Format: in vivo, Pseudoperonospora cubensis. Further details: Disease index: scale not given here. As for the experimental part:
Protective action (field test).
Field protection test against cucumber downy mildew was carried out in the farm at a village near Shenyang City. Concentration of the Compound 1 (20% wettable powder) was set at 200, 400 and 600 ppm. Concentration of Previcur (66.5% hydrate ) which was used as the control, was set at 800, 1000 and 1200 ppm. And, a blank control was set separately also. Each treatment was run 4 times. Samples were taken for examination. […] First examination of protective effect was made on April 22. The second examination of protective effect was made on April 29, and the third examinatnion of protective effect was made on May 5.

For assay [5], the system named is cucumber downy mildew. Kind of assay: Field therapeutic test against cucumber downy mildew (Example 14). The settings on record: three treatments, examined on June 3. The class given is in vivo, Pseudoperonospora cubensis. The procedure: Therapeutic effect (field test).
Field therapeutic test of the compound 1 against cucumber downy mildew was carried out in a farm at a village near Shenyang City.
Concentration of the Compound 1 (20% wettable powder) was set at 100, 200 and 300 ppm. Chlor 1500 ppm was used as the control, and blank control was set separately also. Each treatment was repeated three times. First treatment was made on May 13, second treatment was made on May 20, and third treatment was made on May 27, and protective effect was examined on June 3.

The test system of the next assay is late blight of tomato. Format: in vivo. The settings on record: three treatments, examined on June 20, field.
For assay [6], the system named is cucumber downy mildew. Kind of assay: Indoor protection test against cucumber downy mildew (Example 10). The note with it: inoculated 24 hours after treatment, examined a week later.
Experimental: (§1) Concentration of test Compound 1 (content was 9% in emulsion oil) was set at 250, 200, 150, 100 and 75 ppm. Dimethomorph (American Cyanamid) 150 ppm was used as the control. Healthy seedling of yellow melon was selected for use, and test was run three times. For protection test, treatment was carried out on September 17, 1995, and they were inoculated 24 hours later. For the therapeutic test, inoculation was made on September 18, and then they were treated 24 hours later. Examination was made a week later, and results were recorded in 9 grades, and disease index and protection effect were calculated.
In assay [7] the test system is cucumber downy mildew. The experiment in a line: Indoor therapeutic test against cucumber downy mildew (Example 10). The settings on record: treated 24 hours after inoculation, examined a week later.
Experimental: as §1
In assay [8] the test system is Downy mildew. The experiment in a line: Indoor comparison with Dimethomorph, test for therapy (Example 11). The note with it: seedling of yellow melon, 2 - 3 leaf stage.
Text: (§2) Test was divided into test for therapy and test for protection. Concentration of two chemicals (Compound 1 and Dimethomorph) was set at 150 and 100 ppm, and each treatment was run three times. A blank control was set separately. Samples were selected from seedling of yellow melon in the 2 - 3 leaf stage. Method of treatment and study was the same as before.
Assay [9] concerns Downy mildew. The experiment in a line: Indoor comparison with Dimethomorph, test for protection (Example 11). The note with it: seedling of yellow melon, 2 - 3 leaf stage.
Text: as §2
Setting [10] is: Pseudoperonospora cubensis, 24 h, read-out: % Inhibition of spore.

Regarding `[Al]#[P]` [Aluminium phosphide, aluminium phosphide, reference compound], the “Protective effect/preventive (%)control” value with cucumber downy mildew [1] (1000 ppm) came out at 75.0%. Moreover, the “Therapeutic effect (%)control” value in the assay on cucumber downy mildew [2] (1000 ppm) is recorded as 40.0%.

As to `N#Cc1c(Cl)c(Cl)c(Cl)c(C#N)c1Cl` [Chlorothalonil, reference compound], the “Protective effect/preventive (%)control” value in the assay on cucumber downy mildew [1] (1000 ppm) worked out at 90.0%. Moreover, the “Therapeutic effect (%)control” value in the assay with cucumber downy mildew [2] (1000 ppm) is given as 75.0%.

The inhibition is how much of the control response was suppressed. Consider `COc1ccc(/C(=C\C(=O)N2CCOCC2)c2ccc(F)cc2)cc1OC` [Compound 1], for which the “% Spore germination” value is 23.1% in assay [3] (25 ppm, 25°C, after 24 hours); 4.3% in assay [3] (50 ppm, 25°C, after 24 hours); 1.6% in assay [3] (100 ppm, 25°C, after 24 hours). Moreover, the “Number of spores germinated” value in [3] (25 ppm, 25°C, after 24 hours) was found to be 198; in assay [3] (50 ppm, 25°C, after 24 hours), 45; in assay [3] (100 ppm, 25°C, after 24 hours) it was 17. For the same compound, the “Number of ungerminated spores” value in [3] (25 ppm, 25°C, after 24 hours) stood at 660; in [3] (50 ppm, 25°C, after 24 hours), 990; in [3] (100 ppm, 25°C, after 24 hours), 1044. Besides, the inhibition at 25 ppm in [3] (setting [10]) worked out at 65.2%. The inhibition at 50 ppm in assay [3] (setting [10]) stood at 93.5%. For the same compound, in assay [3] (setting [10]), the inhibition at 100 ppm came out at 97.6%. Besides, the “Protective effect/preventive (%)control” value in the assay with cucumber downy mildew [1] (25 ppm) is 40.0%; with cucumber downy mildew [1] (50 ppm) it was 60.0%; in the assay with cucumber downy mildew [1] (75 ppm), 75.0%; in the assay on cucumber downy mildew [1] (100 ppm) it was 90.0%; in the assay on cucumber downy mildew [1] (200 ppm), 100.0%. The “Therapeutic effect (%)control” value in the assay on cucumber downy mildew [2] (25 ppm) is on record as 0.0%; in the assay on cucumber downy mildew [2] (50 ppm), 40.0%; with cucumber downy mildew [2] (75 ppm) it was 60.0%; in the assay with cucumber downy mildew [2] (100 ppm), 75.0%; with cucumber downy mildew [2] (200 ppm), 90.0%; in the assay with Downy mildew [8] (100 ppm), 63%. Also, the “Therapeutic effect (%)control” value with Downy mildew [8] (150 ppm) is on record as 74%. In addition, the Disease index in the assay on cucumber downy mildew [4] (200 ppm, April 22) is 0; in the assay with cucumber downy mildew [4] (200 ppm, April 29), 0; with cucumber downy mildew [4] (200 ppm, May 5), 0.03; in the assay on cucumber downy mildew [4] (400 ppm, April 22) it was 0; in the assay with cucumber downy mildew [4] (400 ppm, April 29), 0; in the assay with cucumber downy mildew [4] (400 ppm, May 5), 0. Also, the Disease index was 0 in the assay on cucumber downy mildew [4] (600 ppm, April 22); 0 in the assay with cucumber downy mildew [4] (600 ppm, April 29); 0 with cucumber downy mildew [4] (600 ppm, May 5); 0.049 with cucumber downy mildew [5] (100 ppm); 0.011 in the assay on cucumber downy mildew [5] (200 ppm); 0 in the assay on cucumber downy mildew [5] (300 ppm). The Disease index with late blight of tomato (200 ppm) turned out to be 5.56; in the assay on late blight of tomato (400 ppm) it was 2.59; in the assay with late blight of tomato (600 ppm), 2.22. For the same compound, the “Protective (%)control” value in the assay on cucumber downy mildew [4] (200 ppm, April 22) is reported as 100%; in the assay on cucumber downy mildew [4] (200 ppm, April 29), 100%; in the assay with cucumber downy mildew [4] (200 ppm, May 5), 97.0%; in the assay with cucumber downy mildew [4] (400 ppm, April 22), 100%; with cucumber downy mildew [4] (400 ppm, April 29), 100%; with cucumber downy mildew [4] (400 ppm, May 5), 100%. The “Protective (%)control” value is reported as 100% with cucumber downy mildew [4] (600 ppm, April 22); 100% with cucumber downy mildew [4] (600 ppm, April 29); 100% in the assay on cucumber downy mildew [4] (600 ppm, May 5); 80.9% with late blight of tomato (200 ppm); 91.1% with late blight of tomato (400 ppm); 94.9% with late blight of tomato (600 ppm). The “Protective effect (%)control” value in the assay on cucumber downy mildew [5] (100 ppm) was determined as 88.4%; in the assay with cucumber downy mildew [5] (200 ppm), 97.4%; with cucumber downy mildew [5] (300 ppm), 100%; in the assay on Downy mildew [9] (100 ppm), 93%; in the assay with Downy mildew [9] (150 ppm), 95%. For the same compound, the “Protection (%)control” value with cucumber downy mildew [6] (75 ppm) stood at 92.5%; in the assay on cucumber downy mildew [6] (100 ppm) it was 100%; in the assay on cucumber downy mildew [6] (150 ppm), 100%; in the assay on cucumber downy mildew [6] (200 ppm) it was 100%; in the assay on cucumber downy mildew [6] (250 ppm) it was 100%. In addition, the “Protection Disease index” value in the assay on cucumber downy mildew [6] (75 ppm) is recorded as 0.03; with cucumber downy mildew [6] (100 ppm), 0; in the assay with cucumber downy mildew [6] (150 ppm) it was 0; in the assay with cucumber downy mildew [6] (200 ppm), 0; in the assay with cucumber downy mildew [6] (250 ppm), 0. Moreover, the “Therapeutic (%)control” value in the assay with cucumber downy mildew [7] (75 ppm) was 78.8%; with cucumber downy mildew [7] (100 ppm) it was 84.6%; in the assay on cucumber downy mildew [7] (150 ppm), 100%; with cucumber downy mildew [7] (200 ppm) it was 98.1%; in the assay on cucumber downy mildew [7] (250 ppm), 100%. Besides, the “Therapeutic Disease index” value in the assay with cucumber downy mildew [7] (75 ppm) came to 0.11; in the assay with cucumber downy mildew [7] (100 ppm), 0.08; with cucumber downy mildew [7] (150 ppm) it was 0; in the assay on cucumber downy mildew [7] (200 ppm) it was 0.01; with cucumber downy mildew [7] (250 ppm), 0. For the same compound, the “Therapeutic effect Disease index” value is reported as 0.37 in the assay on Downy mildew [8] (100 ppm) and 0.26 with Downy mildew [8] (150 ppm). In addition, the “Protective effect Disease index” value in the assay on Downy mildew [9] (100 ppm) is reported as 0.07; in the assay on Downy mildew [9] (150 ppm), 0.05.

With `COc1ccc(C(=CC(=O)N2CCOCC2)c2ccc(Cl)cc2)cc1OC` [Dimethomorph, reference compound], in assay [3] (50 ppm, 25°C, after 24 hours), the “% Spore germination” value was 38.2%, the “Number of spores germinated” value worked out at 208 and the “Number of ungerminated spores” value stood at 336. Moreover, the inhibition at 50 ppm in [3] (Pseudoperonospora cubensis, 50 ppm, 25°C, after 24 hours, read-out: % Inhibition of spore) was determined as 42.5%. In addition, in the assay on cucumber downy mildew [6] (150 ppm), the “Protection (%)control” value was found to be 100% and the “Protection Disease index” value is listed as 0. Also, in the assay on cucumber downy mildew [7] (150 ppm), the “Therapeutic (%)control” value stood at 63.5% and the “Therapeutic Disease index” value came to 0.19. In the assay with Downy mildew [8] (100 ppm), the “Therapeutic effect (%)control” value is listed as 2% and the “Therapeutic effect Disease index” value stood at 0.98. Also, in the assay on Downy mildew [8] (150 ppm), the “Therapeutic effect (%)control” value was 24% and the “Therapeutic effect Disease index” value stood at 0.76. For the same compound, in the assay on Downy mildew [9] (100 ppm), the “Protective effect (%)control” value worked out at 61% and the “Protective effect Disease index” value is 0.39. In addition, in the assay with Downy mildew [9] (150 ppm), the “Protective effect (%)control” value stood at 79% and the “Protective effect Disease index” value is recorded as 0.21.

For `COCC(=O)N(c1c(C)cccc1C)C(C)C(=O)OC` (stereo not drawn) [metalaxyl, reference compound], the “Protective effect/preventive (%)control” value in the assay on cucumber downy mildew [1] (500 ppm) is 60.0%. Moreover, the “Therapeutic effect (%)control” value in the assay on cucumber downy mildew [2] (500 ppm) is reported as 40.0%.
